# Results from patent US20190167711A1, “METHODS FOR DIAGNOSIS AND TREATMENT OF ACUTE LYMPHOBLASTIC LEUKEMIA” (MOR RESEARCH APPLICATIONS LTD., priority 2014, published 2019).
# Key:
# Assay type in all cases: cell-based
# NAMPT 3′-UTR = experiment: Luciferase reporter assay with NAMPT 3′-UTR; details: after transfection
# Text: To perform the reporter assay, the regulatory region of NAMPT is cloned […] of the Firefly luciferase gene in an expression vector, and the resulting recombinant vector, e.g., pLightSwitch 3′UTR, is transfected into cells along with an expression vector comprising the Renilla gene serving as reference. In accordance with some embodiments described herein, a target reporter vector containing the full-length wild type NAMPT 3′ untranslated region (3′-UTR) (pLightSwithch NAMPT 3′UTR) purchased from GeneCopoeia™ (Rockville, Md., USA) was co-transfected into NALM-6 cells along with Renilla luciferase vector as internal vector control. The NAMPT 3′-UTR contains miRNA response elements (MREs), to one of which miRNA-451 specifically binds. Twenty-four hours before transfection, NALM-6 cells were plated in 6 wells until 70% confluent. Two hundred (200) pmol miR-451 mimic, 200 pmol scrambled miR (both purchased from IDT®-Syntezza, Jerusalem, Israel) or 2 μg antagomiR-451 plasmid (GeneCopoeia™, Rockville, Md., USA) were transiently transfected into NALM-6 cells together with 2 μg pLightSwitch NAMPT 3′UTR and Renilla luciferase vector. […] Briefly, cells were collected, lysed to release all proteins (including the luciferase), luciferin was added along with all the necessary cofactors, and the enzymatic activity was quantitatively measured using a luminometer. […]
# Nalm-6 cells = experiment: Annexin V-FITC apoptosis assay in Nalm-6 cells; details: NALM-6 cells, transient expression
# Text: Cells were stained with annexin V-fluorescein-5-isothiocyanate (FITC) conjugated antibody and propidium iodide (PI) using the Annexin V-FITC Apoptosis Detection Kit (ab14085, Abcam® Incorporated, Cambridge, Mass., USA) according to manufacturer's instructions (see, for example, https://www.abcam.com/ps/products/14/ab14085/documents/ab14085%20Annexin %20V%20FITC%20Apoptosis%20Detection%20Kit%20v4%20(website).pdf), and read on the flow cytometer. Annexin V Apoptosis Detection Kit is based on the observation that soon after initiating apoptosis, cells translocate the membrane phosphatidylserine (PS) from the inner face of the plasma membrane to the cell surface. Once on the cell surface, PS can be easily detected by staining with a fluorescent conjugate (e.g., FITC) of Annexin V, a protein that has a high affinity for PS. The one-step staining procedure takes only 10 minutes. When performing both Annexin V-FITC and PI staining, it is possible to differentiate apoptosis vs necrosis.
# To measure the effect of NAD^+ depletion following FK866 treatment of Nalm-6 cells, apoptosis and viability were measured as described in Materials and Methods. Nalm-6 cells were treated for 48 hours with 1 nM FK866, and then apoptosis was measured using FACS.
# NAMPT = experiment: Western blot of NAMPT in transfected NALM-6 cells; details: NALM-6 transient
# Text: (§1) Protein was extracted from NALM-6 cell line using Qproteome™ lysis buffer (Qiagen, Hilden, Germany). The membrane was then probed with one or more of the following antibodies: anti-disintegrin and metalloproteinase domain-containing protein 10 (ADAM10) (1:1000) (Abcam; Cambridge, UK) (see Example 9); anti-chemokine C-X-C motif 16 (CXCL16) (1:1000); anti-NAMPT (1:1000); and anti-GAPDH (1:5000) (Santa Crus Biotechnology, Santa Crus, Calif., USA) (see Examples 5 and 9). The secondary antibodies were goat anti-mouse and goat anti-rabbit (1:10,000) (Sigma®, Saint Louis, Mo., USA), for each antigen according to the manufacturer's instructions. […]
# (§2) Intensity of the protein band was measured using an in-house program. […]
# (§3) Possible miR-451 targets were evaluated using several open access software programs (e.g., Targetscan, PicTar, miRanda, miRDB). […] In the first screening, the suppression of ADAM10, CXCL16 and NAMPT protein level was analyzed in NALM-6 cells transiently expressing miR-451 mimic (SEQ ID NO: 2) and in cells transiently expressing scrambled-miR (universal sequence; negative control) by Western blot as described in Materials and Methods. […]
# ADAM10 = experiment: Western blot of ADAM10 in transfected NALM-6 cells; details: NALM-6 transient
# Text: as §1, §2, §3
substance,measurement,setting,value
"miR-451 mimic: a dsmiR-451 designed to copy or mimic the functionality of mature endogenous miR-451 upon transfection (AAACCGUUACCAUUACUGAGUU; double-stranded mimic, further chemistry not given here; listed as Homo sapiens)",relative luciferase activity of NAMPT 3′-UTR reporter decreased by,NAMPT 3′-UTR,80%
same,effect on apoptosis rate,Nalm-6 cells,No effect
same,NAMPT protein expression levels compared to scrambled-miR,NAMPT,reduced
same,ADAM10 protein level compared to scrambled-miR,ADAM10,only NAMPT protein expression levels were reduced
